The record followed here is US9783527B2, “Indazole ureas and method of use” (AbbVie Inc., priority 2014, dated 2017).

Structures are written as SMILES.

Sequence of human Nav1.7 (Q15858 whole entry): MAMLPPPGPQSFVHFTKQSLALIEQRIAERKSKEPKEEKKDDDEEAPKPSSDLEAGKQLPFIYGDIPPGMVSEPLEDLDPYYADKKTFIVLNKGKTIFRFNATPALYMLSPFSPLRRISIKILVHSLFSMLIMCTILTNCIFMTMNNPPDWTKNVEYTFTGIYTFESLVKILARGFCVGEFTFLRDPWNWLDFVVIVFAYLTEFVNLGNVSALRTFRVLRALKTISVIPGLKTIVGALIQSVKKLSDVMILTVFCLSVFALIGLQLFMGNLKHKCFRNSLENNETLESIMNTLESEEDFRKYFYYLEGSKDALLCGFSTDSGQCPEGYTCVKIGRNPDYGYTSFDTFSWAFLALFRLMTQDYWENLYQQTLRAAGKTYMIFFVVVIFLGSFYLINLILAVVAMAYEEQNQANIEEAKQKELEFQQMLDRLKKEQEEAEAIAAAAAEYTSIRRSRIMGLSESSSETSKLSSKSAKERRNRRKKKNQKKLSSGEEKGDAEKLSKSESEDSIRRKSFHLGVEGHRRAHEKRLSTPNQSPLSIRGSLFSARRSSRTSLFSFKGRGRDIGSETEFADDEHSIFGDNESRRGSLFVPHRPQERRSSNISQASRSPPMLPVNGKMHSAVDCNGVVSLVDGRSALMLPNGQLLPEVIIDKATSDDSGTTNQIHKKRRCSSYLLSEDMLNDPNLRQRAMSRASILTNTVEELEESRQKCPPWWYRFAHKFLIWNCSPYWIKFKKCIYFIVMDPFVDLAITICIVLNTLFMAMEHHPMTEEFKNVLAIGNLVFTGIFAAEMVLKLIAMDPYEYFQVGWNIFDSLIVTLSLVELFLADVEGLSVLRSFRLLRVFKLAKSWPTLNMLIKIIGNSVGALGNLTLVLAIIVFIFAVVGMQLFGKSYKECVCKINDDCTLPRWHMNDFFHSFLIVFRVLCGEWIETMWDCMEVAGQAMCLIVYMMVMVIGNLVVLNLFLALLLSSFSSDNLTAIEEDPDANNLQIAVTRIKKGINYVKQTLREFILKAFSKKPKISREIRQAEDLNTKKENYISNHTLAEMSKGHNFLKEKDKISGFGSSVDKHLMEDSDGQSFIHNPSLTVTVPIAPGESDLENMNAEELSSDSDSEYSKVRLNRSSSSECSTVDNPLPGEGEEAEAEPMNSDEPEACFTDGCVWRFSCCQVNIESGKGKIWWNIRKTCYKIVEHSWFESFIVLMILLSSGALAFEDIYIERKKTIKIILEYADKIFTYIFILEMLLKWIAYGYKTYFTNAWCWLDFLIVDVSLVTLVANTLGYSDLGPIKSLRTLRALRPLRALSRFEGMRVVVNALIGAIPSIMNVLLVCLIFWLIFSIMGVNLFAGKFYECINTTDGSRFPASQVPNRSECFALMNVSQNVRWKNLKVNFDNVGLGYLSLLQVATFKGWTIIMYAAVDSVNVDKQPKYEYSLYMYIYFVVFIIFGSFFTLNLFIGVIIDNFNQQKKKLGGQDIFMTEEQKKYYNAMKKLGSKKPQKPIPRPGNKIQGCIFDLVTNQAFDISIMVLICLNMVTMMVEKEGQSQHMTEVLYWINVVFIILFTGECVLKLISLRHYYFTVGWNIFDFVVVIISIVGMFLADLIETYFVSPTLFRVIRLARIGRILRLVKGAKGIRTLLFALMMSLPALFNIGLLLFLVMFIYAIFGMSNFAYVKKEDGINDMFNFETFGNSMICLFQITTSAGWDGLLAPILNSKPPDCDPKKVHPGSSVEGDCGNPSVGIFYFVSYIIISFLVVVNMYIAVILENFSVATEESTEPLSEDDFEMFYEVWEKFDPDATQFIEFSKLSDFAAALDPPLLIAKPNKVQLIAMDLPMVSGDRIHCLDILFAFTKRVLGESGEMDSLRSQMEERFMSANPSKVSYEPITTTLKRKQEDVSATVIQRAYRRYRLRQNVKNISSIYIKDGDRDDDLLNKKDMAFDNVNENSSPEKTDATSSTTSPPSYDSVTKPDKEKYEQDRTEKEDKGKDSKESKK

This assay addresses human Nav1.7 (Homo sapiens (Human), UniProt Q15858). Briefly: FRET-based membrane potential assay, recombinant human sodium channel Nav1.7. It counts as cell-based. The conditions noted are these: HEK293 cells stably expressing recombinant human Nav1.7; depolarization with veratridine (EC80) + scorpion venom. The method in brief: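 IC50 derived by four-parameter Hill fit of percent inhibition of depolarization, measured as peak F440-480/F565-625 ratio over baseline. Stable human Nav1.7 HEK293 cells, dye-loaded with CC2-DMPE and DiSBAC2(3)/VABSC-1 at room temperature, received compound 3 min ahead of veratridine (EC80) plus scorpion venom.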
As to `CN(CCN1CCOCC1)C(=O)CN1CCN(c2cccc3c2cnn3-c2ccccc2F)C1=O` [Example 72, 2-{3-[1-(2-fluorophenyl)-1H-indazol-4-yl]-2-oxoimidazolidin-1-yl}-N-methyl-N-[2-(morpholin-4-yl)ethyl]acetamide], the half-maximal inhibitory concentration (IC50) (in general, the midpoint of a concentration-inhibition curve) was 1800 nM.

As for `O=C1N(c2cncs2)CCN1c1cccc2c1cnn2-c1ccccc1F` [Example 158, 1-[1-(2-fluorophenyl)-1H-indazol-4-yl]-3-(1,3-thiazol-5-yl)imidazolidin-2-one], the IC50 was 20000 nM.

As to `O=C1N(CC(=O)N2CC3CCC2C3)CCN1c1cccc2c1cnn2-c1ccccc1F` (stereo not drawn) [Example 202, 1-[2-(2-azabicyclo[2.2.1]hept-2-yl)-2-oxoethyl]-3-[1-(2-fluorophenyl)-1H-indazol-4-yl]imidazolidin-2-one], the IC50 was determined as 681 nM.

Consider `Cc1nc(CN2CCN(c3cccc4c3cnn4-c3ccccc3F)C2=O)cs1` [Example 217, 1-[1-(2-fluorophenyl)-1H-indazol-4-yl]-3-[(2-methyl-1,3-thiazol-4-yl)methyl]imidazolidin-2-one], for which the IC50 turned out to be 1070 nM.

`CC(C)CC1CCCN1C(=O)CN1CCN(c2cccc3c2cnn3-c2ccccc2F)C1=O` (stereo not drawn) [Example 117, 1-[1-(2-fluorophenyl)-1H-indazol-4-yl]-3-[2-(2-isobutylpyrrolidin-1-yl)-2-oxoethyl]imidazolidin-2-one]: the IC50 turned out to be 1790 nM.

For `O=C1N(c2cnccn2)CCN1c1cccc2c1cnn2-c1ccccc1F` [Example 226, 1-[1-(2-fluorophenyl)-1H-indazol-4-yl]-3-(pyrazin-2-yl)imidazolidin-2-one], the IC50 worked out at 3370 nM.

On to `COc1cncc(N2CCN(c3cccc4c3cnn4-c3ccccc3F)C2=O)c1` [Example 230, 1-[1-(2-fluorophenyl)-1H-indazol-4-yl]-3-(5-methoxypyridin-3-yl)imidazolidin-2-one], for which the IC50 is 3730 nM.

As for `C[C@@]1(c2cccc(F)c2)C[C@H](N2CCN(c3cccc4c3cnn4-c3ccccc3F)C2=O)CO1` [Example 195, 2,5-anhydro-1,3,4-trideoxy-2-(3-fluorophenyl)-4-{3-[1-(2-fluorophenyl)-1H-indazol-4-yl]-2-oxoimidazolidin-1-yl}-D-erythro-pentitol], the IC50 came out at 1390 nM.

Turning to `CC(C)c1nnc(CN2CCN(c3cccc4c3cnn4-c3ccccc3F)C2=O)o1` [Example 256, 1-[1-(2-fluorophenyl)-1H-indazol-4-yl]-3-[(5-isopropyl-1,3,4-oxadiazol-2-yl)methyl]imidazolidin-2-one], the IC50 came to 3120 nM.

Consider `O=C1N(c2cccc3c2cnn3-c2ccccc2F)CCN1S(=O)(=O)C1CCCCC1` [Example 78, 1-(cyclohexylsulfonyl)-3-[1-(2-fluorophenyl)-1H-indazol-4-yl]imidazolidin-2-one], for which the IC50 was determined as 2940 nM.

Consider `O=C1N(CC(O)CC2CCCCC2)CCN1c1cccc2c1cnn2-c1ccccc1F` (stereo not drawn) [Example 139, 1-(3-cyclohexyl-2-hydroxypropyl)-3-[1-(2-fluorophenyl)-1H-indazol-4-yl]imidazolidin-2-one], for which the concentration for half-maximal inhibition (IC50) amounted to 2410 nM.

With `O=C(CN1CCN(c2cccc3c2cnn3-c2ccccc2F)C1=O)N1CC(F)(F)C1` [Example 91, 1-[2-(3,3-difluoroazetidin-1-yl)-2-oxoethyl]-3-[1-(2-fluorophenyl)-1H-indazol-4-yl]imidazolidin-2-one], the IC50 is 1740 nM.

On to `O=C1N(CC2CC2)CCN1c1cccc2c1cnn2-c1ccccc1F` [Example 194, 1-(cyclopropylmethyl)-3-[1-(2-fluorophenyl)-1H-indazol-4-yl]imidazolidin-2-one], for which the half-inhibitory concentration (IC50) worked out at 613 nM.

For `O=C1N(Cc2ccncn2)CCN1c1cccc2c1cnn2-c1ccccc1F` [Example 222, 1-[1-(2-fluorophenyl)-1H-indazol-4-yl]-3-(pyrimidin-4-ylmethyl)imidazolidin-2-one], the IC50 was 11200 nM.

Regarding `O=C1N(CC(O)CC2CCC2)CCN1c1cccc2c1cnn2-c1ccccc1F` (stereo not drawn) [Example 141, 1-(3-cyclobutyl-2-hydroxypropyl)-3-[1-(2-fluorophenyl)-1H-indazol-4-yl]imidazolidin-2-one], the half-maximal inhibitory concentration (IC50) worked out at 1160 nM.

`Cc1noc(C)c1N1CCN(c2cccc3c2cnn3-c2ccccc2F)C1=O` [Example 236, 1-(3,5-dimethyl-1,2-oxazol-4-yl)-3-[1-(2-fluorophenyl)-1H-indazol-4-yl]imidazolidin-2-one]: the half-inhibitory concentration (IC50) turned out to be 924 nM.

With `COC1C2CCC1CN(C(=O)CN1CCN(c3cccc4c3cnn4-c3ccccc3F)C1=O)C2` (stereo not drawn) [Example 109, 1-[1-(2-fluorophenyl)-1H-indazol-4-yl]-3-[2-(8-methoxy-3-azabicyclo[3.2.1]oct-3-yl)-2-oxoethyl]imidazolidin-2-one], the IC50 came to 1020 nM.

Take `O=C(CN1CCN(c2cccc3c2cnn3-c2ccccc2F)C1=O)N1CCC1` [Example 94, 1-[2-(azetidin-1-yl)-2-oxoethyl]-3-[1-(2-fluorophenyl)-1H-indazol-4-yl]imidazolidin-2-one]: the half-inhibitory concentration (IC50) came out at 11900 nM.

Regarding `O=C1N(CC(=O)N2CCCC2CN2CCOCC2)CCN1c1cccc2c1cnn2-c1ccccc1F` (stereo not drawn) [Example 71, 1-[1-(2-fluorophenyl)-1H-indazol-4-yl]-3-{2-[2-(morpholin-4-ylmethyl)pyrrolidin-1-yl]-2-oxoethyl}imidazolidin-2-one], the 50% inhibitory concentration (IC50) is 2340 nM.

As to `O=C(CN1CCN(c2cccc3c2cnn3-c2ccccc2F)C1=O)NCc1cc(F)cc(F)c1` [Example 177, N-(3,5-difluorobenzyl)-2-{3-[1-(2-fluorophenyl)-1H-indazol-4-yl]-2-oxoimidazolidin-1-yl}acetamide], the IC50 is 965 nM.

Turning to `O=C(CC1CC2CCC1C2)CN1CCN(c2cccc3c2cnn3-c2ccccc2F)C1=O` (stereo not drawn) [Example 142, 1-[3-(bicyclo[2.2.1]hept-2-yl)-2-oxopropyl]-3-[1-(2-fluorophenyl)-1H-indazol-4-yl]imidazolidin-2-one], the IC50 came out at 2000 nM.

On to `CC(C)[C@H]1CCCN1C(=O)CN1CCN(c2cccc3c2cnn3-c2ccccc2F)C1=O` [Example 126, 1-[1-(2-fluorophenyl)-1H-indazol-4-yl]-3-{2-[(2R)-2-isopropylpyrrolidin-1-yl]-2-oxoethyl}imidazolidin-2-one], for which the IC50 is 343 nM.

On to `CC(C)c1cc(CN2CCN(c3cccc4c3cnn4-c3ccccc3F)C2=O)on1` [Example 249, 1-[1-(2-fluorophenyl)-1H-indazol-4-yl]-3-[(3-isopropyl-1,2-oxazol-5-yl)methyl]imidazolidin-2-one], for which the IC50 was 2430 nM.

`CC(C)(C)CNC(=O)CN1CCN(c2cccc3c2cnn3-c2ccccc2F)C1=O` [Example 357, N-(2,2-dimethylpropyl)-2-{3-[1-(2-fluorophenyl)-1H-indazol-4-yl]-2-oxoimidazolidin-1-yl}acetamide]: the concentration for half-maximal inhibition (IC50) amounted to 3060 nM.

On to `CC(C)CC(O)CN1CCN(c2cccc3c2cnn3-c2ccccc2F)C1=O` (stereo not drawn) [Example 123, 1-[1-(2-fluorophenyl)-1H-indazol-4-yl]-3-(2-hydroxy-4-methylpentyl)imidazolidin-2-one], for which the IC50 was found to be 346 nM.

Take `O=C(Nc1ccccc1)[C@H]1CCCN1C(=O)CN1CCN(c2cccc3c2cnn3-c2ccccc2F)C1=O` [Example 120, 1-({3-[1-(2-fluorophenyl)-1H-indazol-4-yl]-2-oxoimidazolidin-1-yl}acetyl)-N-phenyl-D-prolinamide]: the IC50 amounted to 4180 nM.

For the compound `O=C1NCCN1c1cccc2c1cnn2-c1ccccc1F` [Example 57, 1-[1-(2-fluorophenyl)-1H-indazol-4-yl]imidazolidin-2-one], the concentration for half-maximal inhibition (IC50) stood at 9640 nM.

For `O=C1N(CC(=O)N2C[C@H](O)C[C@@H]2c2cc(F)ccc2F)CCN1c1cccc2c1cnn2-c1ccccc1F` [Example 121, 1-{2-[(2R,4R)-2-(2,5-difluorophenyl)-4-hydroxypyrrolidin-1-yl]-2-oxoethyl}-3-[1-(2-fluorophenyl)-1H-indazol-4-yl]imidazolidin-2-one], the half-maximal inhibitory concentration (IC50) was determined as 2410 nM.

With `NC(=O)Cn1ccn(-c2cccc3c2cnn3-c2ccccc2F)c1=O` [Example 9, 2-{3-[1-(2-fluorophenyl)-1H-indazol-4-yl]-2-oxo-2,3-dihydro-1H-imidazol-1-yl}acetamide], the half-maximal inhibitory concentration (IC50) was 959 nM.

In the case of `O=C(CN1CCN(c2cccc3c2cnn3-c2ccccc2F)C1=O)c1ccc(C(F)(F)F)cc1` [Example 151, 1-[1-(2-fluorophenyl)-1H-indazol-4-yl]-3-{2-oxo-2-[4-(trifluoromethyl)phenyl]ethyl}imidazolidin-2-one], the 50% inhibitory concentration (IC50) came to 20000 nM.

With `CC(C)C[C@@](C)(O)CN1CCN(c2cccc3c2cnn3-c2ccccc2F)C1=O` [Example 167, 1-[1-(2-fluorophenyl)-1H-indazol-4-yl]-3-[(2R)-2-hydroxy-2,4-dimethylpentyl]imidazolidin-2-one], the IC50 turned out to be 893 nM.

In the case of `Cc1nc(CN2CCN(c3cccc4c3cnn4-c3ccccc3F)C2=O)oc1C` [Example 238, 1-[(4,5-dimethyl-1,3-oxazol-2-yl)methyl]-3-[1-(2-fluorophenyl)-1H-indazol-4-yl]imidazolidin-2-one], the IC50 was 586 nM.

In the case of `O=C(CN1CCN(c2cccc3c2cnn3-c2ccccc2F)C1=O)C1CC1` [Example 183, 1-(2-cyclopropyl-2-oxoethyl)-3-[1-(2-fluorophenyl)-1H-indazol-4-yl]imidazolidin-2-one], the IC50 stood at 2930 nM.

Regarding `CC(C)C(O)CN1CCN(c2cccc3c2cnn3-c2ccccc2F)C1=O` (stereo not drawn) [Example 163, 1-[1-(2-fluorophenyl)-1H-indazol-4-yl]-3-(2-hydroxy-3-methylbutyl)imidazolidin-2-one], the concentration for half-maximal inhibition (IC50) came out at 2160 nM.

For `O=C1N(CC(O)C2CCC2)CCN1c1cccc2c1cnn2-c1ccccc1F` (stereo not drawn) [Example 165, 1-(2-cyclobutyl-2-hydroxyethyl)-3-[1-(2-fluorophenyl)-1H-indazol-4-yl]imidazolidin-2-one], the IC50 is 681 nM.

On to `CC[C@@H](CO)N1CCN(c2cccc3c2cnn3-c2ccccc2F)C1=O` [Example 159, 1-[1-(2-fluorophenyl)-1H-indazol-4-yl]-3-[(2S)-1-hydroxybutan-2-yl]imidazolidin-2-one], for which the IC50 was 3590 nM.
